These compounds were tested against kappa opioid receptor (OPRK1) (Homo sapiens (Human), UniProt P41145) (assay: OPRK1 antagonist assay (b-arrestin-2-TEV / b-lactamase reporter cell line, EC80 U-50488 challenge)). Details: read-out: IC50 nM (% inhib if other than 50%); antagonist mode vs EC80 U-50488; NA = not active at concentrations up to 10 μM.
Chain of kappa opioid receptor (OPRK1) (P41145 whole entry): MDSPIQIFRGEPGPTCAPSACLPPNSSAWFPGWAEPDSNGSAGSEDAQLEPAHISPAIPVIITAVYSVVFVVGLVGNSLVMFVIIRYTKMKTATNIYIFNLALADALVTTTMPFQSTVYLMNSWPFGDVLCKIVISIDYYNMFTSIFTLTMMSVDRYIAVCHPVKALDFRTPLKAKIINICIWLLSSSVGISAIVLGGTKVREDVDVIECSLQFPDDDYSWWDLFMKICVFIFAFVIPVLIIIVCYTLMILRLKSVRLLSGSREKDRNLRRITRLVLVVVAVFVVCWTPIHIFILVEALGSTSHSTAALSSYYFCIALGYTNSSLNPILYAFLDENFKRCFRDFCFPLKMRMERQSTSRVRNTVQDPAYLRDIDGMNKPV
Type: cell-based
`COC(=O)c1cc(Br)cnc1N1CCC(N)C(O)C1` (stereo not drawn) [compound 83] was tested, and the IC50 was 5900 nM.
`COC(=O)c1cc(Br)cnc1N1CCC(N(C)C2CCCCC2)CC1` [compound 19] showed an IC50 of 2700 nM.
`Cc1nc(-c2cc3ccc(F)cc3nc2N2CCC(NC3CCOCC3)CC2)no1` [compound 482] gave an IC50 of 75 nM.
`COC1CN(c2nc3ccc(C)cc3cc2-c2nc(C3CC3)no2)CCC1NCC(C)C` (stereo not drawn) [compound 376] gave an IC50 of 14 nM.
In the case of `Cc1noc(-c2cc3ccccc3nc2N2CC(NC3CCCCC3)C2)n1` [compound 234], the IC50 is reported as 596 nM.
`COC(=O)c1cc(C)ccc1N1CCC(NC2CCCCC2)C(OC)C1` (stereo not drawn) [compound 539] was tested, and the IC50 was 3700 nM.
For `Cc1nc(-c2cc3cc(C)c(F)cc3nc2N2CCC(NC3CCCC3)CC2)no1` [compound 512], the IC50 was 12 nM.
Compound `CC(=O)c1cc2cc(C)ccc2nc1N1CCC(NC2CCOCC2)CC1` [compound 478] has an IC50 of 900 nM.
`CO[C@H]1CN(c2nc3ccc(C)cc3cc2C(=O)OC(C)C)CC[C@H]1NC1CCCCC1` [compound 343] showed an IC50 of 10.6 nM.
Compound `COC(=O)c1cc(Br)cnc1N1CCC(NC2CCCCC2C)C(CO)C1` (stereo not drawn) [compound 80] has an IC50 of 87 nM.
Compound `CO[C@@H]1CN(c2nnc(C)cc2C(=O)OC(C)C)CC[C@@H]1NC1CCCCC1` [compound 404] has an IC50 of 63 nM.
`Cc1ccc2nc(N3CC[C@@H](NC4CCCCC4)[C@H](O)C3)c(-c3nc(C)no3)cc2c1` [compound 213] showed an IC50 of 8.5 nM.
Compound `Cc1noc(-c2cc3cc(F)ccc3nc2N2CCC(NC3CCOCC3)CC2)n1` [compound 476] has an IC50 of 430 nM.
Work on `CCc1noc(-c2cc3cc(C)ccc3nc2N2CCC(NC3CCOCC3)CC2)n1` [compound 290] yielded an IC50 of 47 nM.
`COC1CN(c2nc(C)c(C)cc2-c2nc(C)no2)CCC1NC1CCCCC1` (stereo not drawn) [compound 165] gave an IC50 of 19 nM.
In the case of `COC(=O)c1cc(Br)cnc1N1CCC(NC(=O)C2CCCCC2)CC1` [C58], the IC50 is reported as > 20000 nM.
`COC(=O)c1cc(I)cnc1N1CCC(NC2CCCCC2C)C(CO)C1` (stereo not drawn) [compound 89] was tested, and the IC50 was 116 nM.
With `COC(=O)c1cc(Br)cnc1N1CCC(NC2CCOCC2)C(CO)C1` (stereo not drawn) [compound 81] the IC50 was 126 nM.
`COC(=O)c1cc(C)cnc1N1CCC(NC2CCCCC2)CC1` [compound 108] was tested, and the IC50 was 404 nM.
`COC1CN(c2nc3ccccc3cc2-c2nc(C)no2)CCC1NC1CCCCC1` (stereo not drawn) [compound 176] was tested, and the IC50 was 28 nM.
With `CCOC(=O)c1nc2cc(C)ccc2nc1N1CCC(NC2CCCCC2)C(CO)C1` (stereo not drawn) [compound 373] the IC50 was 63 nM.
`Cc1noc(-c2cc3ccc(F)cc3nc2N2CCC(NC3CCCCC3)CC2)n1` [compound 515] gave an IC50 of 7 nM.
`Cc1noc(-c2cc(C(F)(F)F)cnc2N2CC[C@@H](NC3CCCCC3)[C@H](O)C2)n1` [compound 173] showed an IC50 of 1200 nM.
With `COC(=O)c1cc(Br)cnc1N1CCC(NC2CCCC(C)C2C)CC1` (stereo not drawn) [compound 23] the IC50 was 854 nM.
Work on `COC(=O)c1cc(I)cnc1N1CCC(NC2CCCCC2)C(O)C1` (stereo not drawn) [compound 42] yielded an IC50 of 18 nM.
Work on `COC(=O)c1cc(Br)cnc1N1CCC(NC2CCCCC2)CC1` [compound 7] yielded an IC50 of 133 nM.
`CCc1ccc2nc(N3CCC(NC4CCCCC4)C(CO)C3)c(-c3nc(C)no3)cc2c1` (stereo not drawn) [compound 269] was tested, and the IC50 was 30 nM.
Compound `COC1CN(c2nc3ccccc3cc2-c2cnc(C)cn2)CCC1NC1CCCCC1` (stereo not drawn) [compound 465] has an IC50 of 18 nM.
For `COC(=O)c1cc([N+](=O)[O-])cnc1N1CCC(NC2CCCCC2)C(O)C1` (stereo not drawn) [compound 98], the IC50 was 1100 nM.
With `Cc1noc(-c2cc3c(F)cccc3nc2N2CCC(NC3CCCCC3)C(CO)C2)n1` (stereo not drawn) [compound 253] the IC50 was 10 nM.
With `Cc1noc(-c2cc3ccccc3nc2N2CCC(NC3CCOC3)CC2)n1` (stereo not drawn) [compound 236] the IC50 was 20 nM.
With `Cc1ccc2nc(N3CCC(NC4CCCCC4F)CC3)c(-c3nc(C)no3)cc2c1` (stereo not drawn) [compound 250] the IC50 was 8 nM.
Compound `COC(=O)c1cc(Br)cnc1N1CCC(NC2CCCCCC2)CC1` [compound 20] has an IC50 of 110 nM.
`COC(=O)c1cc(-c2ccsc2)cnc1N1CCC(NC2CCCCC2)CC1` [compound 32] showed an IC50 of 5300 nM.
With `COC1CN(c2ncc(C)cc2-c2nc(C)no2)CCC1NC1CCCCC1` (stereo not drawn) [compound 179] the IC50 was 253 nM.
For `Cc1noc(-c2cc(Br)cnc2N2CCC(NC3CCCCC3)CC2)n1` [compound 41], the IC50 was 331 nM.
Compound `Cc1cc(-c2nc(C)no2)c(N2CCC(NC3CCCCC3)C(CO)C2)nn1` (stereo not drawn) [compound 180] has an IC50 of 7 nM.
For `COC(=O)c1cc(Br)cnc1N1CCC(NC2CCCCC2)C(CO)C1` (stereo not drawn) [compound 68], the IC50 was 40 nM.
`CC(=O)c1cc(C)cnc1N1CC[C@@H](NC2CCCCC2)[C@H](O)C1` [C60] showed an IC50 of 14000 nM.
Compound `COC(=O)c1cc(I)cnc1N1CC[C@@H](NC2CCCCC2)[C@H](O)C1` [compound 106] has an IC50 of 24 nM.
Compound `Cc1ccc2nc(N3CCC(NC4CCCCC4)C(CO)C3)c(-c3nc(C)no3)cc2c1` (stereo not drawn) [compound 215] has an IC50 of 3 nM.
`Cc1noc(-c2cc3ccccc3nc2N2CCC(NC3CCCCC3O)CC2)n1` (stereo not drawn) [compound 230] gave an IC50 of 9 nM.
`Cc1cnc(N2CC[C@@H](NC3CCCCC3)[C@H](O)C2)c(-c2ncccn2)c1` [compound 244] showed an IC50 of 566 nM.
`Cc1nc(-c2cc3ccc(F)cc3nc2N2CCC(N[C@H]3CCCOC3)CC2)no1` [compound 486] was tested, and the IC50 was 1070 nM.
In the case of `Cc1ccc2nc(N3CCC(N[C@H]4CCCC[C@@H]4O)CC3)c(-c3ccncn3)cc2c1` [compound 516], the IC50 is reported as 564 nM.
For `CO[C@H]1CN(c2nc3cc(Cl)ccc3cc2-c2nc(C)no2)CC[C@H]1NC1CCCCC1` [compound 537], the IC50 was 12 nM.
For `CCC(CC)NC1CCN(c2nc3ccccc3cc2-c2nc(C)no2)CC1` [compound 237], the IC50 was 8 nM.
Compound `Cc1nc(-c2cc3ccc(F)c(C)c3nc2N2CCC(NC3CCCC3)CC2)no1` [compound 504] has an IC50 of 45 nM.
`COC1CN(c2ncc(C)cc2-c2ncco2)CCC1NC1CCCCC1` (stereo not drawn) [C70] gave an IC50 of 17000 nM.
With `Cc1ccc2nc(N3CCC(NC4CCC(C)CC4)CC3)c(-c3nc(C)no3)cc2c1` (stereo not drawn) [compound 350] the IC50 was 0.97 nM.
`Cc1cnc(N2CCC(NC3CCCCCC3)C(CO)C2)c(-c2nc(C)no2)c1` (stereo not drawn) [compound 197] showed an IC50 of 85 nM.
`COC1CN(c2ncc(C)cc2C=O)CCC1NC1CCCCC1` (stereo not drawn) [C69] showed an IC50 of 30000 nM.
Compound `COC(=O)c1cc(Br)cnc1N1CCC(N[C@H](C)C2CCCCC2)CC1` [compound 17] has an IC50 of 6800 nM.
`Cc1noc(-c2cc3cc(Cl)ccc3nc2N2CC[C@@H](NC3CCCCC3)[C@H](O)C2)n1` [compound 238] showed an IC50 of 38 nM.
Work on `COC1CN(c2nc3ccc(C)cc3cc2C(=O)N2CCCC2)CCC1NC1CCCCC1` (stereo not drawn) [compound 323] yielded an IC50 of 1340 nM.
`COC1CCCCC1NC1CCN(c2nc3ccccc3cc2-c2nc(C)no2)CC1CO` (stereo not drawn) [compound 199] gave an IC50 of 59 nM.
`Cc1ccc2nc(N3CCC(NC4CCCCC4)C(CO)C3)c(C(=O)OC(C)C)cc2c1` (stereo not drawn) [compound 291] showed an IC50 of 18 nM.
`CCc1noc(-c2cc3cc(C)ccc3nc2N2CCC(NC3CCCCC3)C(OC)C2)n1` (stereo not drawn) [compound 283] showed an IC50 of 4 nM.
`COC(=O)c1cc(Br)cnc1N1CCC(NC2CCCC2)C(C(=O)OC)C1` (stereo not drawn) [compound 117] gave an IC50 of 3800 nM.
Work on `COC1CN(c2nc3ccccc3cc2C2=NC(C)CO2)CCC1NC1CCCCC1` (stereo not drawn) [compound 259] yielded an IC50 of 372 nM.
`Cc1cnc(N2CCC(NC3CCCCC3C)C(CO)C2)c(-c2nc(C)no2)c1` (stereo not drawn) [compound 203] gave an IC50 of 132 nM.
`COC(=O)c1cc(I)cnc1N1CCC(NC2CCCCC2)CC1` [compound 36] gave an IC50 of 79 nM.
In the case of `COC(=O)c1cc(Cl)cnc1N1CCC(NC2CCCCC2)C(O)C1` (stereo not drawn) [compound 43], the IC50 is reported as 52 nM.
`Cc1noc(-c2cc3ccc(F)cc3nc2N2CCC(NCC(C)C)CC2)n1` [compound 527] showed an IC50 of 20 nM.
With `COC1CN(c2nc(C)c(C)cc2-c2nc(C)no2)CCC1NC1CCCCCC1` (stereo not drawn) [compound 319] the IC50 was 21 nM.
For `CCc1noc(-c2cc3cc(C)ccc3nc2N2CCC(NC3CCOCC3)C(OC)C2)n1` (stereo not drawn) [compound 327], the IC50 was 5.6 nM.
With `COC(=O)c1cc([N+](=O)[O-])cnc1N1CCC(NC2CCCCC2)CC1` [compound 84] the IC50 was 6200 nM.
Compound `Cc1noc(-c2cc(C)c(C)nc2N2CCC(NC3CCCCC3)CC2)n1` [compound 221] has an IC50 of 24 nM.
`O[C@@H]1CN(c2nc3ccccc3cc2-c2ncco2)CC[C@H]1NC1CCCCC1` [compound 218] gave an IC50 of 475 nM.
Compound `COC(=O)c1cc(I)cnc1N1CCC(NC2CCCC2)C(CO)C1` (stereo not drawn) [compound 88] has an IC50 of 52 nM.
With `COC(=O)c1cc(Br)cnc1N1CCC(NC2CCOCC2)C(O)C1` (stereo not drawn) [compound 61] the IC50 was 54 nM.
For `COC(=O)c1cc(Br)cnc1N1CC(O)C(NC2CCCCC2)C1` (stereo not drawn) [compound 48], the IC50 was 459 nM.
`CCc1ccc2nc(N3CCC(NC4CCCCC4)C(OC)C3)c(-c3nc(C)no3)cc2c1` (stereo not drawn) [compound 268] was tested, and the IC50 was 37 nM.
Work on `COC(=O)c1cc(NC(=O)NC(C)C)cnc1N1CCC(NC2CCCCC2)CC1` [C35] yielded an IC50 of 17000 nM.
Work on `COC(=O)c1cc(C2CC2)cnc1N1CCC(NC2CCCCC2)C(O)C1` (stereo not drawn) [C66] yielded an IC50 of 17000 nM.
Work on `COC(=O)c1cc(Br)cnc1N1CCC(NC2CCCC2)C(CO)C1` (stereo not drawn) [compound 79] yielded an IC50 of 25 nM.
`CCOC(=O)c1noc(-c2cc3cc(C)ccc3nc2N2CCC(NC3CCCCC3O)CC2)n1` (stereo not drawn) [compound 336] showed an IC50 of 4360 nM.
`COC(=O)c1cc(Br)cnc1N1CCCC(NC2CCCCC2)CC1` (stereo not drawn) [compound 66] showed an IC50 of 1700 nM.
